From patent publication US11135234B2, “Effective aminoglycoside antibiotic for multidrug-resistant bacteria” (MICROBIAL CHEMISTRY RESEARCH FOUNDATION, priority 2015, dated 2021)
In brackets after ≈: the same amount, converted by molar mass.

What was measured:
S. aureus RN4220 = experiment: MIC, agar plate dilution method, S. aureus RN4220; assay type: cell-based, Staphylococcus aureus; settings: for MIC: Staphylococcus aureus, RN4220, S. aureus RN4220, Sensitive bacterium, read-out: minimal inhibitory concentration (MIC); for minimal inhibitory concentration (MIC): S. aureus RN4220, Sensitive bacterium
Method in brief: (§1)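 Minimal inhibitory concentration (μg/mL) was determined by agar plate dilution following the Japan Society of Chemotherapy method.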

S. aureus RN4220/pMS520 = experiment: MIC, agar plate dilution method, S. aureus RN4220/pMS520; assay type: cell-based, Staphylococcus aureus; settings: for MIC: Staphylococcus aureus, MRSA, read-out: minimal inhibitory concentration (MIC), S. aureus RN4220/pMS520, MRSA; for minimal inhibitory concentration (MIC): S. aureus RN4220/pMS520, MRSA
Method in brief: as §1

S. aureus MF490 = experiment: MIC, agar plate dilution method, S. aureus MF490; assay type: cell-based, Staphylococcus aureus; settings: for MIC: Staphylococcus aureus, MRSA, read-out: minimal inhibitory concentration (MIC); for minimal inhibitory concentration (MIC): S. aureus MF490, MRSA
Method in brief: as §1

E. faecium ATCC19434 = experiment: MIC, agar plate dilution method, E. faecium ATCC19434; assay type: cell-based, Enterococcus faecium; settings: for MIC: Enterococcus faecium, ATCC19434, E. faecium ATCC19434, read-out: minimal inhibitory concentration (MIC); for minimal inhibitory concentration (MIC): E. faecium ATCC19434
Method in brief: as §1

E. coli JM109/pMW218 = experiment: MIC, agar plate dilution method, E. coli JM109/pMW218; assay type: cell-based, Escherichia coli; settings: for MIC: Escherichia coli, JM109/PMW218, E. coli JM109/pMW218, Sensitive bacterium, read-out: minimal inhibitory concentration (MIC); for minimal inhibitory concentration (MIC): E. coli JM109/pMW218, Sensitive bacterium
Method in brief: as §1

[1] = test system: K. pneumoniae ATCC BAA-1705; experiment: MIC, agar plate dilution method, K. pneumoniae ATCC BAA-1705; assay type: cell-based, Klebsiella pneumoniae; settings: for MIC: Klebsiella pneumoniae, ATCCBAA1705, K. pneumoniae ATCC BAA-1705, KPC-producing strain, read-out: minimal inhibitory concentration (MIC); for minimal inhibitory concentration (MIC): K. pneumoniae ATCC BAA-1705, KPC-producing strain
Method in brief: as §1

[2] = test system: K. pneumoniae ATCC BAA-2146; experiment: MIC, agar plate dilution method, K. pneumoniae ATCC BAA-2146; assay type: cell-based, Klebsiella pneumoniae; settings: for MIC: Klebsiella pneumoniae, ATCCBAA2146, K. pneumoniae ATCC BAA-2146, NDM-producing strain, read-out: minimal inhibitory concentration (MIC); for minimal inhibitory concentration (MIC): K. pneumoniae ATCC BAA-2146, NDM-producing strain
Method in brief: as §1

[3] = test system: A. baumannii ATCC BAA-1710; experiment: MIC, agar plate dilution method, A. baumannii ATCC BAA-1710; assay type: cell-based, Acinetobacter baumannii; settings: for MIC: Acinetobacter baumannii, ATCCBAA1710, A. baumannii ATCC BAA-1710, MDRA, read-out: minimal inhibitory concentration (MIC); for minimal inhibitory concentration (MIC): A. baumannii ATCC BAA-1710, MDRA
Method in brief: as §1

S. marcescens TH-0447 = experiment: MIC, agar plate dilution method, S. marcescens TH-0447; assay type: cell-based, Serratia marcescens; settings: for MIC: Serratia marcescens, TH0447, S. marcescens TH-0447, AMK-resistant, read-out: minimal inhibitory concentration (MIC); for minimal inhibitory concentration (MIC): S. marcescens TH-0447, AMK-resistant
Method in brief: as §1

S. marcescens GN6944 = experiment: MIC, agar plate dilution method, S. marcescens GN6944; assay type: cell-based, Serratia marcescens; settings: S. marcescens GN6944, GM-resistant; for MIC: Serratia marcescens, read-out: minimal inhibitory concentration (MIC)
Method in brief: as §1

P. aeruginosa PAO1 = experiment: MIC, agar plate dilution method, P. aeruginosa PAO1; assay type: cell-based, Pseudomonas aeruginosa; settings: for MIC: Pseudomonas aeruginosa, PAO1, P. aeruginosa PAO1, Sensitive bacterium, read-out: minimal inhibitory concentration (MIC); for minimal inhibitory concentration (MIC): P. aeruginosa PAO1, Sensitive bacterium
Method in brief: as §1

P. aeruginosa PAO1/GN315 = experiment: MIC, agar plate dilution method, P. aeruginosa PAO1/GN315; assay type: cell-based, Pseudomonas aeruginosa; settings: for MIC: Pseudomonas aeruginosa, read-out: minimal inhibitory concentration (MIC), P. aeruginosa PAO1/GN315, AMK-resistant; for minimal inhibitory concentration (MIC): P. aeruginosa PAO1/GN315, AMK-resistant
Method in brief: as §1

P. aeruginosa MSC17707 = experiment: MIC, agar plate dilution method, P. aeruginosa MSC17707; assay type: cell-based, Pseudomonas aeruginosa; settings: for MIC: Pseudomonas aeruginosa, MSC17707, P. aeruginosa MSC17707, AMK-resistant, read-out: minimal inhibitory concentration (MIC); for minimal inhibitory concentration (MIC): P. aeruginosa MSC17707, AMK-resistant
Method in brief: as §1

P. aeruginosa MSC01035 = experiment: MIC, agar plate dilution method, P. aeruginosa MSC01035; assay type: cell-based, Pseudomonas aeruginosa; settings: P. aeruginosa MSC01035, ABK-resistant; for MIC: Pseudomonas aeruginosa, read-out: minimal inhibitory concentration (MIC)
Method in brief: as §1

SMILES	MIC (S. aureus RN4220) [µg/mL]	MIC (S. aureus RN4220/pMS520) [µg/mL]	MIC (S. aureus MF490) [µg/mL]	MIC (E. faecium ATCC19434) [µg/mL]	MIC (E. coli JM109/pMW218) [µg/mL]	MIC [1] [µg/mL]	minimal inhibitory concentration (MIC) (S. aureus RN4220) [µg/mL]	minimal inhibitory concentration (MIC) (S. aureus RN4220/pMS520) [µg/mL]	minimal inhibitory concentration (MIC) (S. aureus MF490) [µg/mL]	minimal inhibitory concentration (MIC) (E. faecium ATCC19434) [µg/mL]	minimal inhibitory concentration (MIC) (E. coli JM109/pMW218) [µg/mL]	minimal inhibitory concentration (MIC) [1] [µg/mL]	minimal inhibitory concentration (MIC) [2] [µg/mL]	minimal inhibitory concentration (MIC) [3] [µg/mL]	minimal inhibitory concentration (MIC) (S. marcescens TH-0447) [µg/mL]	minimal inhibitory concentration (MIC) (S. marcescens GN6944) [µg/mL]	minimal inhibitory concentration (MIC) (P. aeruginosa PAO1) [µg/mL]	minimal inhibitory concentration (MIC) (P. aeruginosa PAO1/GN315) [µg/mL]	minimal inhibitory concentration (MIC) (P. aeruginosa MSC17707) [µg/mL]	minimal inhibitory concentration (MIC) (P. aeruginosa MSC01035) [µg/mL]	other results
CNC1C(O[C@H]2OC(CO)[C@@H](NC(=N)N)[C@H](O)C2O)O[C@H]2CC(N)[C@@H](O[C@H]3CC(O)[C@H](N)CC3N)OC2C1O (stereo partly shown) [Compound S1-e, 4″-deamino-5-deoxy-4″-guanidinoapramycin]	1 (≈ 1.77 µM)	1 (≈ 1.77 µM)	4 (≈ 7.07 µM)	4 (≈ 7.07 µM)	0.5 (≈ 0.884 µM)	2 (≈ 3.54 µM)															MIC [2]: 0.5 µg/mL (≈ 0.884 µM); MIC [3]: 4 µg/mL (≈ 7.07 µM); MIC (S. marcescens TH-0447): 4 µg/mL (≈ 7.07 µM); MIC (S. marcescens GN6944): 4 µg/mL (≈ 7.07 µM); MIC (P. aeruginosa PAO1): 4 µg/mL (≈ 7.07 µM); MIC (P. aeruginosa PAO1/GN315): 4 µg/mL (≈ 7.07 µM); MIC (P. aeruginosa MSC17707): 8 µg/mL (≈ 14.1 µM); MIC (P. aeruginosa MSC01035): 8 µg/mL (≈ 14.1 µM)
CNC1C(O[C@H]2OC(CO)[C@@H](NC)[C@H](O)C2O)O[C@H]2CC(N)[C@@H](O[C@@H]3C(N)C[C@@H](N)C(O)[C@H]3O)OC2C1O (stereo partly drawn) [Compound S1-f, 5-epi-4″-N-methylapramycin]							2 (≈ 3.61 µM)	2 (≈ 3.61 µM)	8 (≈ 14.5 µM)	16 (≈ 28.9 µM)	1 (≈ 1.81 µM)	2 (≈ 3.61 µM)	1 (≈ 1.81 µM)	8 (≈ 14.5 µM)	8 (≈ 14.5 µM)	4 (≈ 7.23 µM)	4 (≈ 7.23 µM)	4 (≈ 7.23 µM)	8 (≈ 14.5 µM)	8 (≈ 14.5 µM)	
CNC1C(O[C@H]2OC(CO)[C@@H](NCCN)[C@H](O)C2O)O[C@H]2CC(N)[C@@H](O[C@@H]3C(N)C[C@@H](N)C(O)[C@H]3O)OC2C1O (stereo partly shown) [Compound S1-g, 4″-N-(2-aminoethyl)-5-epiapramycin]	4 (≈ 6.87 µM)	2 (≈ 3.43 µM)	8 (≈ 13.7 µM)	16 (≈ 27.5 µM)	1 (≈ 1.72 µM)	2 (≈ 3.43 µM)															MIC [2]: 2 µg/mL (≈ 3.43 µM); MIC [3]: 4 µg/mL (≈ 6.87 µM); MIC (S. marcescens TH-0447): 8 µg/mL (≈ 13.7 µM); MIC (S. marcescens GN6944): 8 µg/mL (≈ 13.7 µM); MIC (P. aeruginosa PAO1): 4 µg/mL (≈ 6.87 µM); MIC (P. aeruginosa PAO1/GN315): 4 µg/mL (≈ 6.87 µM); MIC (P. aeruginosa MSC17707): 4 µg/mL (≈ 6.87 µM); MIC (P. aeruginosa MSC01035): 8 µg/mL (≈ 13.7 µM)
CNC1C(O[C@H]2OC(CO)[C@@H](NCCCN)[C@H](O)C2O)O[C@H]2CC(N)[C@@H](O[C@@H]3C(N)C[C@@H](N)C(O)[C@H]3O)OC2C1O (stereo partly shown) [Compound S1-h, 4″-N-(3-aminopropyl)-5-epiapramycin]							2 (≈ 3.35 µM)	2 (≈ 3.35 µM)	8 (≈ 13.4 µM)	16 (≈ 26.8 µM)	1 (≈ 1.68 µM)	2 (≈ 3.35 µM)	1 (≈ 1.68 µM)	8 (≈ 13.4 µM)	8 (≈ 13.4 µM)	8 (≈ 13.4 µM)	4 (≈ 6.7 µM)	4 (≈ 6.7 µM)	4 (≈ 6.7 µM)	8 (≈ 13.4 µM)	
CN[C@@H]1[C@@H](O[C@H]2O[C@H](CO)[C@@H](NC(CN)CN)[C@H](O)[C@H]2O)O[C@H]2C[C@@H](N)[C@@H](O[C@H]3[C@@H](O)[C@@H](O)[C@H](N)C[C@@H]3N)O[C@@H]2[C@@H]1O [Compound S1-i, 4″-N-(1,3-diaminopropan-2-yl)-5-epiapramycin]							2 (≈ 3.27 µM)	2 (≈ 3.27 µM)	4 (≈ 6.54 µM)	4 (≈ 6.54 µM)	1 (≈ 1.63 µM)	1 (≈ 1.63 µM)	2 (≈ 3.27 µM)	4 (≈ 6.54 µM)	8 (≈ 13.1 µM)	4 (≈ 6.54 µM)	2 (≈ 3.27 µM)	4 (≈ 6.54 µM)	2 (≈ 3.27 µM)	4 (≈ 6.54 µM)	
